# Experimental data from US20250302982A1, “METHODS OF TREATING CANCER WITH ANTI-TISSUE FACTOR ANTIBODY-DRUG CONJUGATES” (Genmab A/S, priority 2022, published 2025).
# “Also recorded” adds a separate entry of the source. Marks after values point to notes of the source that are not given here.
# Tests used:
# [1] = molecular target: T1, human TF (Homo sapiens, UniProt P13726); assay: Tisotumab binding to HNSCC cell lines by flow cytometry; conditions: 2 μg/ml
# T1 construct: Three VU-SCC cells lines with various levels of TF expression were selected for additional analysis; endogenous in cells; host or cells: HNSCC cell lines VU-SCC-OE, VU-SCC-078, VU-SCC-120
# Description: Methods: Three VU-SCC cells lines with various levels of TF expression were selected for additional analysis. It was determined that VU-SCC-OE had TF expression levels similar to that of non-cancerous fibroblasts and VU-SCC-078 had slightly higher expression levels of TF compared to VU-SCC-OE; VU-SCC-120 was a cell line with high levels of TF expression (FIG. 2). These three cell lines were cultured and subsequently assayed for tisotumab binding. Cells were incubated with the anti-human TF monoclonal antibody, (tisotumab, 2 μg/ml, IgG1-1015-011, Genmab) or an isotype control IgG (Genmab IgG1-b12). The PE-conjugated goat (Fab′)2 anti-human IgG secondary antibody (1:50 Jackson, 109-116-098) was applied and the cells were analyzed by flow cytometry.
# [2] = test system: FaDu tumor; assay: TV monotherapy in FaDu xenograft mice; assay type: in vivo, nude mice
# Description: (§1) Nude mice (female, athymic nu/nu, age 6-8 weeks old, from Envigo, Horst, The Netherlands), were kept in filter top cages under sterile conditions under standardized environmental conditions. The HNSCC cell lines FaDu, VU-SCC-OE or VU-SCC-040 were subcutaneously injected in both flanks (2×10^6 cells per flank). The implanted tumor cells were allowed to grow to an average size of 100 mm^3 (range 40-180 mm^3). The mice were treated intraperitoneally (ip) with tisotumab vedotin or an isotype control (IgG1-b12-c-vcMMAE) (FIG. 6). […] Tumor volume was measured with electronic calipers (V=(L×W×H)×0.5 where V=volume, L=length, W=width, H=height) and calculated as mean of tumor(s) per mouse. Tumors with a start volume below 40 mm^3 and no signs of growth were excluded from the analysis. Tumors from un-treated tumor bearing mice were harvested and embedded in paraffin for analysis of TF expression using IHC analysis as described in the preceding examples. TF expression was detected using anti-CD142-FITC or isotype control (IgG1-FITC) with rabbit anti-FITC (Zymed) and BrightVision Immunohistochemistry (IHC) Detection Kit and visualized with DAB counterstained with Haematoxylin.
# (§2) Nude mice were injected with HNSCC cells and xenografts were established as described above in Example 3A. Xenograft mice (5 mice with 8-10 tumors per group) were treated with PBS, 2 and 4 mg/kg tisotumab vedotin, or 4 mg/kg isotype IgG1-vedotin on days 0, 7 and 13 (FaDu) or on days 0, 7 and 14 (VU-SCC-OE and VU-SCC-040) (FIG. 6). Tumor volume was measured as described in the preceding example. Data analysis was performed using Graph Pad Prism version 9.1.0 (GraphPad Software, San Diego, CA). Data are depicted as mean±SD or mean±SEM. Statistical differences were determined using a Kruskal-Wallis test with multiple comparison tests (>2 groups). Improved overall survival was assessed using the Kaplan-Meier method and differences between the groups was assessed by the Log-rank test (Mantel-Cox). p-values<0.05 were considered significant (*p<0.05, **p<0.01,***p<0.001, **** p<0.0001, ns=not significant).
# [3] = test system: VU-SCC-040 tumor; assay: TV monotherapy in VU-SCC-040 xenograft mice; assay type: in vivo, nude mice
# Description: as §1
# as §2, with “Xenograft mice (5 mice with 8-10 tumors per group) were treated with PBS, 2 and 4 mg/kg tisotumab vedotin, or 4 mg/kg isotype IgG1-vedotin on days 0, 7 and 13 (FaDu) or on days 0, 7 and 14 (VU-SCC-OE and VU-SCC-040) (FIG. 6).” left out
# [4] = test system: VU-SCC-OE xenograft; assay: TV combined with chemoradiotherapy (CRT) in VU-SCC-OE xenograft mice; assay type: in vivo, nude mice
# Description: (§3) Methods: FaDu xenografts were established in nude mice (5-6 mice/group) as described above in Example 3.
# (§4) FaDu xenograft mice were treated 24 hour hours prior to CRT (CRT was administered on day 1 and 11) with TV or the isotype control, which was administered on day 0 and 10. VU-SCC-OE xenograft mice were treated 24 hour hours prior to CRT (CRT was administered on day 1 and 8) with TV or the isotype (IgG1-vedotin) control, which was administered on day 0 and 7. For mice receiving CRT, whole body irradiation (2 Gy; Varian TrueBeam™ Linear Accelerator) was applied approximately 4 hours after administering cisplatin (CDDP, 3 mg/kg). Tumor volume was measured as described above, and statistical analysis was performed on the collected data as also described above.
# [5] = test system: primary keratinocytes; assay: Cell Titer-Blue cytotoxicity assay in primary keratinocytes; assay type: cell-based, human; conditions: low TF expression
# Description: Keratinocytes were cultured in serum-free Keratinocyte medium (KSFM, Gibco, 17005-034) supplemented with 0.1% bovine serum albumin (BSA, Biovision), recombinant epidermal growth factor (EGF) (Gibco, 10450-013) and bovine pituitary extract (Gibco, 13028-014). HNSCC cell lines were cultured in Dulbecco's Modified Eagle's Medium (DMEM), containing 5% fetal bovine serum (FBS, Gibco, 10270-106) and 2 mM L-glutamine (Lonza, BE-17-605E). The FaDu cell line was purchased from the ATCC. […]
# Methods: Cells were seeded in 96-wells plates on day 0 (1000-6000 cells/well, depending on the cell line). […] The relative number of viable cells was assessed on day 5 using a Cell Titer-Blue assay (Promega, Leiden, The Netherlands, G8080) according to the protocol from the manufacturer and fluorescence was measured using the GloMax®-Multi Detection System (Promega). […] After subtraction of background (medium only), the percentages of viable cells were calculated using the following formula: % viable cells=((mean fluorescence test samples−mean fluorescence staurosporine sample)/(mean fluorescence untreated sample−mean fluorescence staurosporine sample))*100. […]
# [6] = test system: FaDu xenograft; assay: TV combined with cisplatin (CDDP) in FaDu xenograft mice; conditions: 2 mg/kg TV + cisplatin 3 mg/kg ip
# Description: FaDu xenografts were established in nude mice (6-7 mice/group) as described above in Example 4. Mice were treated with the antibodies on day 0 and 7 and/or on day 1 and 8 with 3 mg/kg intraperitoneal cisplatin (CDDP) chemotherapy (CT) (FIG. 6). TV or control IgG-vedotin (IgG1-V) was administered at day 0. For mice subjected to chemotherapy, cisplatin was administered at day 1. A minimum of 8 tumors were included per group.
# [7] = test system: FaDu xenograft; assay: TV combined with radiotherapy (RT) in FaDu xenograft mice; assay type: in vivo, nude mice; conditions: for Median survival [days]: end of experiment day 112; for Range Survival [days]: end of the experiment is day 112
# Description: FaDu xenografts were established in nude mice as described in Example 3. […] For mice subjected to RT, 2 Gy whole body radiotherapy was administered at day 1.
# [8] = test system: VU-SCC-OE tumor; assay: TV monotherapy in VU-SCC-OE xenograft mice; assay type: in vivo, nude mice; conditions: days 0, 7, 14
# Description: as §1
# as §2, with “Xenograft mice (5 mice with 8-10 tumors per group) were treated with PBS, 2 and 4 mg/kg tisotumab vedotin, or 4 mg/kg isotype IgG1-vedotin on days 0, 7 and 13 (FaDu) or on days 0, 7 and 14 (VU-SCC-OE and VU-SCC-040) (FIG. 6).” left out
# [9] = test system: HNSCC cell lines; assay: Cell Titer-Blue cytotoxicity assay in HNSCC cell lines; assay type: cell-based, human
# Description: Methods: Cells were seeded in 96-wells plates on day 0 (1000-6000 cells/well, depending on the cell line). After overnight culturing, tisotumab vedotin or the negative control isotype IgG1-vedotin (IgG1-c-b12-vc monomethyl auristatin E (MMAE)) was added in increasing concentrations to the different wells. The relative number of viable cells was assessed on day 5 using a Cell Titer-Blue assay (Promega, Leiden, The Netherlands, G8080) according to the protocol from the manufacturer and fluorescence was measured using the GloMax®-Multi Detection System (Promega). Staurosporine (5 μM, Sigma, UCN-01 or 56942) was used as a positive control to induce maximum cell death, and untreated cells were also used as a negative control. After subtraction of background (medium only), the percentages of viable cells were calculated using the following formula: % viable cells=((mean fluorescence test samples−mean fluorescence staurosporine sample)/(mean fluorescence untreated sample−mean fluorescence staurosporine sample))*100. Graphs represent non-linear regression curves of log-transformed antibody concentrations, using Graphpad Prism version 9.1.0 (GraphPad Software, San Diego, CA).
# [10] = test system: FaDu xenograft; assay: TV combined with chemoradiotherapy (CRT) in FaDu xenograft mice; assay type: in vivo, nude mice
# Description: as §3, §4
# T1 sequence (P13726 33-295): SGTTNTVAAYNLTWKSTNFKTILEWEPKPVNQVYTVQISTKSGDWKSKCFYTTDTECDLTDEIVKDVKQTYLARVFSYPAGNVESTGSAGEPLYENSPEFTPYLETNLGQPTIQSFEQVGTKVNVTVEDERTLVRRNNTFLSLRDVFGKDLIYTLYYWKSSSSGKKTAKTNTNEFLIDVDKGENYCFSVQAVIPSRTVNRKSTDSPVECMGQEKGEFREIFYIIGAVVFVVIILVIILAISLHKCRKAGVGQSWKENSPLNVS
substance,measurement,setting,value
tisotumab,binding to HNSCC cells (flow cytometry),"[1]; VU-SCC-078, intermediate expression of TF",bound robustly
same,binding to HNSCC cells (flow cytometry),"[1]; VU-SCC-120, high levels of TF",bound robustly
same,binding to HNSCC cells (flow cytometry),"[1]; VU-SCC-OE, lower levels of TF expression",still capable of binding
tisotumab vedotin,tumor growth compared to control groups,"[2]; 2 mg/kg ip, days 0, 7, 13",significant inhibition of tumor growth
same,tumor regression,"[2]; 2 mg/kg ip, days 0, 7, 13",tumor regression was observed after 3 treatments
same,time after start of initial treatment from which tumor regrowth was visible,"[2]; 2 mg/kg, last treatment on day 13",≥ 30 days
same,tumor regression,"[2]; 4 mg/kg ip, after the first treatment",significant and persistent tumor regression
same,recurrence of tumor growth until end of experiment (day 76),"[2]; 4 mg/kg ip, days 0, 7, 13",without recurrence of tumor growth
same,time to complete tumor regression in all mice,"[2]; 4 mg/kg ip, days 0, 7, 13",≤ 30 days
same,tumor size on day 7 compared to isotype control or PBS,"[2]; tisotumab vedotin treatment groups, day 7",considerably lower tumor size
same,tumor growth compared to control groups,[3]; 1 mg/kg monotherapy,did not inhibit tumor growth
same,tumor growth compared to control groups,[3]; 2 mg/kg,inhibition of tumor growth was observed
same,tumor growth compared to control groups,[3]; 4 mg/kg,inhibition of tumor growth was observed
same,tumor growth at day 7 compared to isotype control,"[3]; 4 mg/kg, after 1 treatment",reduced tumor growth
same,survival compared to control groups or CRT or TV alone,[4]; 2 mg/kg TV + CRT,significantly prolonged survival
same,tumor regression,[4]; 2 mg/kg TV + CRT,induced tumor regression
same,tumor growth compared to control groups (PBS and IgG1-vedotin),[4]; 2 mg/kg TV alone,some inhibition of tumor growth
same,average IC50,[5],above 0.025 μg/ml
same,survival compared to either treatment alone,[6],improved survival
same,tumor load on day 7 compared to either treatment alone,[6],significantly reduced tumor load
same,survival compared to control treatment (PBS or IgG-V),[7]; 1 mg/kg TV alone,did not prolong survival
same,survival time compared to RT alone,"[7]; 2 mg/kg TV + RT, p<0.001",significantly better survival time
same,tumor volume on day 7,[7]; TV 1 mg/kg day 0 + RT 2 Gy day 1,Decreased tumor volume
same,tumor burden on day 7,"[7]; TV 2 mg/kg alone, day 0",lowest tumor burdens
same,tumor burden / tumor volume on day 7,"[7]; TV 2 mg/kg day 0 + RT 2 Gy day 1, listed as TV",lowest tumor burdens; also recorded: Decreased tumor volume
same,Median survival,[7]; hTV 1 mg/kg,10 days
same,Range Survival,[7]; hTV 1 mg/kg,8 to 16 days
same,Median survival,[7]; hTV 1 mg/kg + RT (2 Gy),21 days
same,Range Survival,[7]; hTV 1 mg/kg + RT (2 Gy),14 to 21 days
same,Median survival,[7]; hTV 2 mg/kg,69.5 days
same,Median survival [days],"[7]; hTV 2 mg/kg + RT (2 Gy), listed as TV",median not reached
same,Median survival [days],"[7]; hTV 2 mg/kg + RT (2 Gy), listed as hTV",Undefined
same,Range Survival [days],[7]; hTV 2 mg/kg + RT (2 Gy),21-112* days
same,Range Survival [days],[7]; hTV 2 mg/kg,28-112* days
same,tumor growth,[8]; 1 mg/kg,rapid tumor growth
same,tumor growth,[8]; 2 mg/kg,inhibition of tumor growth
same,tumor growth,[8]; 4 mg/kg TV,inhibition of tumor growth
same,mean IC50 values,[9]; HNSCC cell lines with intermediate and high levels of TF expression,2.5 to 7 ng/mL
same,average IC50,"[9]; VU-SCC-OE, low TF expression",above 0.025 μg/ml
same,killing of HNSCC cell lines (percent viable cells),"[9]; increasing concentrations, viable cells on day 5",efficient and dose-dependent killing
same,"overall survival (Kaplan-Meier) compared to control groups, CRT or TV alone",[10]; 2 mg/kg TV + CRT,significant increase in overall survival
same,tumor size at day 9 after first treatment compared to IgG1-vedotin + CRT,[10]; 2 mg/kg TV + CRT,significant reduction in tumor size
same,tumor growth compared to IgG1-vedotin control group,"[10]; 2 mg/kg TV alone, day 0 and 10",reduced tumor growth
